According to patent publication US7652047B2, “Phenylamino isothiazole carboxamidines as MEK inhibitors” (Ardea Biosciences, Inc., priority 2005, dated 2010):

target: T1, MEK1^CA (human GST-MEK1, constitutively active, Ser218Asp and Ser222Asp) (Homo sapiens, UniProt Q02750, S218D/S222D); experiment: MEK1 enzymatic activity assay (MEK1^CA / ERK2 / MBP, [γ-33P]ATP incorporation); type: biochemical; settings: Table 1, compounds of formula I; read-out: Avg IC50
T1 construct: GST; made in house; host or cells: Escherichia coli
Source text: Materials and preparation of reagents: Human GST-MEK1 and the constitutively active allele GST-MEK1^CA (harboring the mutations Ser218Asp and Ser222Asp) were subcloned into the […] expression vector pGEM4Z (Promega, Madison, Wis.) from the wild type human MEK1 cDNA. GST-MEK1^CA was expressed in Escherichia coli and partially purified using Glutathione Sepharose 4B affinity resin (Amersham Pharmacia Biotech, Piscataway, N.J.). The ERK2 allele was subcloned from MAPK2/Erk2 cDNA (wild type) in pUSEamp (Upstate Biotechnology, Inc., Waltham, Mass.) into the vector pET21a (Novagen, Madison, Wis.) resulting in an N-terminal histidine-tagged mouse ERK2 allele. […] Myelin basic protein (MBP) was purchased from Gibco BRL (Rockville, Md.). EasyTides adenosine 5′-triphosphate (ATP) ([γ-^33P]) (NEN Perkin Elmer, Wellesley, Mass.) was the source of radiolabel for all kinase reactions. Activated Raf-1 (truncated) and activated MAPKinase 2/ERK2 were purchased from Upstate, Inc. (Lake Placid, N.Y.). 4-20% Criterion Precast gels were purchased from Bio-Rad (Hercules, Calif.).
A typical 25-microliter assay contained 0.002 nanomoles MEK1^CA, 0.02 nanomoles ERK2, 0.25 nanomoles MBP, 0.25 nanomoles unlabeled ATP, and 0.1 μCi [γ^33P] ATP. The screening assay essentially comprised four additions. Five μl of diluted compound were dispensed to 96-well assay plates. Ten μl of 2.5× enzyme cocktail (MEK1^CA and ERK2 only) were then added to each well followed by a pre-incubation for 30 minutes at ambient temperature. […] Finally, 100 μl of 10% trichloroacetic acid (TCA) were added and incubated for 30 minutes at room temperature to halt the reaction and precipitate radiolabeled protein products. Reaction products were harvested on glass fiber 96 well filter plates prewetted with water and 1% pyrophosphate. The filter plate was then washed 5 times with water. Water was displaced by absolute ethanol and the plate was allowed to air dry for 30 minutes at room temperature. A back seal was applied manually and 40 μl of scintillation cocktail were dispensed to each well. A top seal was applied and the plate was counted in the TopCount for two seconds per well.

T1 sequence (Q02750 whole entry S218D/S222D): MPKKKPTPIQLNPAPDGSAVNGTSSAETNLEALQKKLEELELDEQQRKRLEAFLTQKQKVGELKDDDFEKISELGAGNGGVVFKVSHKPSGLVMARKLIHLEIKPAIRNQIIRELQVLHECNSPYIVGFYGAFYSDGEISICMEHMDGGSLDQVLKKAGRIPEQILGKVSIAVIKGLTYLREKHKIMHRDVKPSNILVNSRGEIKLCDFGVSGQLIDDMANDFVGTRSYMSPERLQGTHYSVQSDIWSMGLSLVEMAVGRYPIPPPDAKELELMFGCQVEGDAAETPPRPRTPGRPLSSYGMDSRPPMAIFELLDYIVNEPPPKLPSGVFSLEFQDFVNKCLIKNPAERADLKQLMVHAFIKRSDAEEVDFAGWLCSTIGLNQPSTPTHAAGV

SMILES | IC50 [nM]
Oc1nsc(Nc2ccc(Oc3ccccc3)cc2)c1-c1noc(-c2ccccc2)n1 [compound 149] | > 500
CC(=O)NC(=N)c1c(O)nsc1Nc1ccc(Oc2ccccc2)cc1 [compound 150] | > 500
Cc1ccc(S(=O)(=O)NC(=N)c2c(O)nsc2Nc2ccc(Oc3ccccc3)cc2)cc1 [compound 151] | > 500
N=C(N[C@H]1CC[C@H](O)CC1)c1c(O)nsc1Nc1ccc(Oc2ccccc2)cc1 [compound 152] | 1 to 100
CCC(CO)NC(=N)c1c(O)nsc1Nc1ccc(Oc2ccccc2)cc1 (centres unmarked) [compound 153] | 100 to 500
CC(CO)/N=C(\N)c1c(O)nsc1Nc1ccc(Oc2ccccc2)cc1 (centres unmarked) [compound 154] | 1 to 100
N=C(N[C@@H]1CCC[C@H]1O)c1c(O)nsc1Nc1ccc(Oc2ccccc2)cc1 [compound 155] | 100 to 500
CC(O)CNC(=N)c1c(O)nsc1Nc1ccc(Oc2ccccc2)cc1 (centres unmarked) [compound 156] | 100 to 500
CCCCC(CO)NC(=N)c1c(O)nsc1Nc1ccc(Oc2ccccc2)cc1 (centres unmarked) [compound 157] | 100 to 500
N=C(NCCCCO)c1c(O)nsc1Nc1ccc(Oc2ccc(Cl)cc2)cc1 [compound 158] | 100 to 500
C[C@H](NC(=N)c1c(O)nsc1Nc1ccc(Oc2ccccc2)cc1)[C@@H](O)c1ccccc1 [compound 159] | 1 to 100
CCC[C@H]1CC[C@H](c2ccc(Nc3snc(O)c3C(=N)NC(C)C)cc2)CC1 [compound 160] | 100 to 500
CCC[C@H]1CC[C@H](c2ccc(Nc3snc(O)c3C(=N)NCCO)cc2)CC1 [compound 161] | > 500
N#CNC(=N)c1c(O)nsc1Nc1ccc(Oc2ccccc2)cc1 [compound 162] | > 500
CC(C)C[C@H](CO)NC(=N)c1c(O)nsc1Nc1ccc(Oc2ccccc2)cc1 [compound 163] | 100 to 500
N=C(NC(CO)CO)c1c(O)nsc1Nc1ccc(Oc2ccccc2)cc1 [compound 164] | 1 to 100
CCC[C@H]1CC[C@H](c2ccc(Nc3snc(O)c3C(=N)NCC(C)(C)CO)cc2)CC1 [compound 165] | 100 to 500
N=C(NCC(O)c1cccc(O)c1)c1c(O)nsc1Nc1ccc(Oc2ccccc2)cc1 (centres unmarked) [compound 166] | 1 to 100
N=C(N[C@@H]1CCCC[C@H]1O)c1c(O)nsc1Nc1ccc(Oc2ccccc2)cc1 [compound 167] | 100 to 500
N=C(N[C@H](CO)CC1CCCCC1)c1c(O)nsc1Nc1ccc(Oc2ccccc2)cc1 [compound 168] | > 500
CC(C)NC(=N)c1c(O)nsc1Nc1ccc(Oc2cncnc2)cc1 [compound 169] | 100 to 500
CC(C)NC(=N)c1c(O)nsc1Nc1ccc(C2CCCCC2)cc1 [compound 170] | 100 to 500
N=C(NCCO)c1c(O)nsc1Nc1ccc(Oc2cncnc2)cc1 [compound 171] | > 500
N=C(NCCO)c1c(O)nsc1Nc1ccc(C2CCCCC2)cc1 [compound 172] | > 500
CC(C)(C)NC(=N)c1c(O)nsc1Nc1ccc(Oc2ccccc2)cc1 [compound 173] | 1 to 100
C[C@@H](CO)NC(=N)c1c(O)nsc1Nc1ccc(Oc2ccccc2)cc1 [compound 174] | 1 to 100
C[C@H](CO)NC(=N)c1c(O)nsc1Nc1ccc(Oc2ccccc2)cc1 [compound 175] | 1 to 100
CC[C@@H](CO)NC(=N)c1c(O)nsc1Nc1ccc(Oc2ccccc2)cc1 [compound 176] | 100 to 500
CC[C@H](CO)NC(=N)c1c(O)nsc1Nc1ccc(Oc2ccccc2)cc1 [compound 177] | 100 to 500
COCC(C)NC(=N)c1c(O)nsc1Nc1ccc(Oc2ccccc2)cc1 (centres unmarked) [compound 178] | 1 to 100

Results, then the compound that gave them:

IC50 [nM] | SMILES
100 to 500 | CC(C)C(CO)NC(=N)c1c(O)nsc1Nc1ccc(Oc2ccccc2)cc1 (centres unmarked) [compound 179]
100 to 500 | CC(C)(C)C(CO)NC(=N)c1c(O)nsc1Nc1ccc(Oc2ccccc2)cc1 (centres unmarked) [compound 180]
> 500 | COc1ccc(Nc2snc(O)c2-c2nnn[nH]2)c(OC)n1 [compound 181]
100 to 500 | N=C(NCc1ccc(C(F)(F)F)nc1)c1c(O)nsc1Nc1cccc(Oc2ccccc2)c1 [compound 182]
1 to 100 | CC(C)NC(=N)c1c(O)nsc1Nc1ccc(Oc2ccc(Cl)cc2)cc1 [compound 183]
> 500 | COc1ccc(Nc2snc(O)c2C(=N)NCc2ccc(C(F)(F)F)nc2)c(OC)n1 [compound 184]
100 to 500 | CC(=O)Oc1nsc(Nc2ccc(Oc3ccccc3)cc2)c1C(=N)NC(C)C [compound 185]
> 500 | N=C(NCC(O)CO)c1c(O)nsc1Nc1ccc(C2CCCCC2)cc1 (centres unmarked) [compound 186]
> 500 | CCCCCCCCCCOCC(O)CNC(=N)c1c(O)nsc1Nc1ccc(Oc2ccccc2)cc1 (centres unmarked) [compound 187]
100 to 500 | CC(C)(CO)NC(=N)c1c(O)nsc1Nc1ccc(Oc2ccccc2)cc1 [compound 188]
100 to 500 | N=C(NCC1(O)CCCCC1)c1c(O)nsc1Nc1ccc(Oc2ccccc2)cc1 [compound 189]
100 to 500 | N=C(NC1(CO)CCCC1)c1c(O)nsc1Nc1ccc(Oc2ccccc2)cc1 [compound 190]
100 to 500 | CC(CO)NC(=N)c1c(O)nsc1Nc1ccc(Oc2ccc(Cl)cc2)cc1 (centres unmarked) [compound 191]
100 to 500 | N=C(NCCO)c1c(O)nsc1Nc1ccc(Oc2ccc(Cl)cc2)cc1 [compound 192]
> 500 | CCC[C@H]1CC[C@H](c2ccc(Nc3snc(O)c3C(=N)NC[C@@H](O)CO)cc2)CC1 [compound 193]
> 500 | CCn1sc(Nc2ccc(Oc3ccccc3)cc2)c(C(=N)NC(C)C)c1=O [compound 194]
> 500 | CC(C)C(=O)O[C@H]1CC[C@H](c2ccc(Nc3snc(O)c3C(=N)NCC(O)CO)cc2)CC1 (some centres unmarked) [compound 195]
> 500 | N=C(NCC(O)CO)c1c(O)nsc1Nc1ccc([C@H]2CC[C@H](O)CC2)cc1 (some centres unmarked) [compound 196]
100 to 500 | CC(C)NC(=N)c1c(O)nsc1Nc1ccc([C@H]2CC[C@H](OC(=O)C(C)C)CC2)cc1 [compound 197]
1 to 100 | CNC(=N)c1c(O)nsc1Nc1ccc(Oc2ccccc2)cc1 [compound 198]
1 to 100 | CCNC(=N)c1c(O)nsc1Nc1ccc(Oc2ccccc2)cc1 [compound 199]
1 to 100 | C=CCNC(=N)c1c(O)nsc1Nc1ccc(Oc2ccccc2)cc1 [compound 200]

IC50 [nM] | SMILES
100 to 500 | CCCNC(=N)c1c(O)nsc1Nc1ccc(Oc2ccccc2)cc1 [compound 201]
1 to 100 | CC(C)CNC(=N)c1c(O)nsc1Nc1ccc(Oc2ccccc2)cc1 [compound 202]
> 500 | N=C(NCC(O)O)c1c(O)nsc1Nc1ccc(Oc2ccc(F)cc2)cc1 [compound 203]
> 500 | N=C(NCCO)c1c(O)nsc1Nc1ccc(Oc2ccc(F)cc2)cc1 [compound 204]
100 to 500 | CC(C)NC(=N)c1c(O)nsc1Nc1ccc(Oc2ccc(F)cc2)cc1 [compound 205]
> 500 | CC(CO)NC(=N)c1c(O)nsc1Nc1ccc(Oc2ccc(F)cc2)cc1 (centres unmarked) [compound 206]
> 500 | N=C(NCCO)c1c(O)nsc1Nc1ccc(Oc2ccc(F)cc2)c(Br)c1 [compound 207]
> 500 | N=C(NCC(O)O)c1c(O)nsc1Nc1ccc(Oc2ccc(F)cc2)c(Br)c1 [compound 208]
100 to 500 | CC(CO)NC(=N)c1c(O)nsc1Nc1ccc(Oc2ccc(F)cc2)c(Br)c1 (centres unmarked) [compound 209]
100 to 500 | N=C(NCC(O)O)c1c(O)nsc1Nc1ccc(Oc2ccccc2Cl)cc1 [compound 210]
> 500 | CC(CO)NC(=N)c1c(O)nsc1Nc1ccc(Oc2ccccc2Cl)cc1 (centres unmarked) [compound 211]
100 to 500 | CC(C)NC(=N)c1c(O)nsc1Nc1ccc(Oc2ccccc2Cl)cc1 [compound 212]
1 to 100 | N=C(NCCO)c1c(O)nsc1Nc1ccc(Oc2ccccc2Cl)cc1 [compound 213]
> 500 | N=C(NCC(O)CO)c1c(O)nsc1Nc1ccc(I)cc1 (centres unmarked) [compound 216]
> 500 | N=C(NCCO)c1c(O)nsc1Nc1ccc(I)cc1 [compound 217]
1 to 100 | CC(CO)NC(=N)c1c(O)nsc1Nc1ccc(/N=N/c2ccccc2)cc1 (centres unmarked) [compound 219]
> 500 | CC(CO)NC(=N)c1c(O)nsc1Nc1ccc(OC2CCCCC2)cc1 (centres unmarked) [compound 220]
100 to 500 | N=C(NCCO)c1c(O)nsc1Nc1ccc(Oc2ccc(Cl)cc2Cl)cc1 [compound 221]
100 to 500 | CC(C)NC(=N)c1c(O)nsc1Nc1cc(Cl)cc(Cl)c1 [compound 224]
1 to 100 | CC(C)NC(=N)c1c(O)nsc1Nc1ccc(Cl)cc1Cl [compound 225]
> 500 | CC(C)NC(=N)c1c(O)nsc1Nc1ccc2c(c1)Cc1ccccc1-2 [compound 227]
1 to 100 | N=C(NCC(O)O)c1c(O)nsc1Nc1ccc(Oc2ccc(Cl)cc2Cl)cc1 [compound 229]
